Columns and labels:
[1] = Solubility in ethanol (coating solvent); assay type: physicochemical
Excerpt: In the following Example, ethanol is chosen as the solvent of choice. The coating to be applied to the stent is a bioactive agent combination, consisting of a mTOR inhibitor and a glucocorticoid. The mTOR inhibitor is zotarolimus. The glucocorticoid is fluocinolone. […] Persons having ordinary skill in the art of polymer chemistry can easily pair the appropriate solvent system to the polymer-bioactive agent(s) combination and achieve optimum results with no more than routine experimentation.

[2] = system: monocyte chemoattractant protein-1 (MCP-1); assay: Relative gene expression of MCP-1 (mRNA) in stented porcine vessels; assay type: in vivo; settings: local delivery from a vascular stent; 7 days after stenting; compared to a bare metal stent; measured on mRNA; FIG. 1A
Excerpt: FIG. 1: Relative gene expression of (A) MCP-1 and (B) TF in porcine vessels that were stented with zotarolimus coated stents compared with uncoated stents and stents coated with fluocinolone. The drug doses are indicated in ug/mm^2. FIG. 2: Relative gene expression of MCP-1 in porcine vessels that were stented with stents coated with zotarolimus alone compared to stents coated with zotarolimus combined with fluocinolone or fluocinolone alone. The drug doses are indicated in ug/mm^2. […] Furthermore, following stent placement, MCP-1 levels in plasma increase after several days and are more likely to be elevated at follow-up 6 months later in patients who have restenosis. In one embodiment, a dose titration experiment can be conducted to determine the optimal dosage for combination of zotarolimus (e.g. anti-proliferative drug) and fluocinolone (e.g. anti-inflammatory drug). At an optimal dose zotarolimus can inhibit neointimal hyperplasia via inhibition of smooth muscle cells proliferation, while maintaining low levels of MCP-1 and TF due to the inhibitory effect of fluocinolone. […] The stented vessels can be excised 7 days post stenting and the expression of TF and MCP-1 can be evaluated via real time-PCR using porcine primers and probes, allowing the quantative measurement at transcriptional level.

tissue factor (TF) = assay: Relative gene expression of TF in stented porcine vessels; assay type: in vivo; settings: local delivery from a vascular stent; several days after stenting; FIG. 1B
Excerpt: FIG. 1: Relative gene expression of (A) MCP-1 and (B) TF in porcine vessels that were stented with zotarolimus coated stents compared with uncoated stents and stents coated with fluocinolone. The drug doses are indicated in ug/mm^2. As such, delivery of zotarolimus locally from a vascular stent increases the expression of TF in stented vessels. The increased expression can be seen several days after the stenting procedure was preformed (FIG. 1B). In one embodiment, a dose titration experiment can be conducted to determine the optimal dosage for combination of zotarolimus (e.g. anti-proliferative drug) and fluocinolone (e.g. anti-inflammatory drug). At an optimal dose zotarolimus can inhibit neointimal hyperplasia via inhibition of smooth muscle cells proliferation, while maintaining low levels of MCP-1 and TF due to the inhibitory effect of fluocinolone. The evaluation of MCP-1 and TF can be performed by conducting pre-clinical, porcine study using stents loaded with escalating doses of at least zotarolimus or in combination with escalating dosages of fluocinolone and evaluating the expression of MCP-1 and TF in the vessels stented with these stents. […] The stented vessels can be excised 7 days post stenting and the expression of TF and MCP-1 can be evaluated via real time-PCR using porcine primers and probes, allowing the quantative measurement at transcriptional level.

| solubility in ethanol [1] | Structure (SMILES) | expression of monocyte chemoattractant protein-1 (MCP-1) in stented vessels [2] | expression of TF in stented vessels (tissue factor (TF)) |
| --- | --- | --- | --- |
| freely soluble | CC1(C)O[C@@H]2C[C@H]3[C@@H]4C[C@H](F)C5=CC(=O)C=C[C@]5(C)[C@@]4(F)[C@@H](O)C[C@]3(C)[C@]2(C(=O)CO)O1 [fluocinolone] |  |  |
| freely soluble | CO[C@H]1C[C@@H]2CC[C@@H](C)[C@@](O)(O2)C(=O)C(=O)N2CCCC[C@H]2C(=O)O[C@H]([C@H](C)C[C@@H]2CC[C@H](n3cnnn3)[C@H](OC)C2)CC(=O)[C@H](C)/C=C(\C)[C@@H](O)[C@@H](OC)C(=O)[C@H](C)C[C@H](C)/C=C/C=C/C=C/1C [zotarolimus] | increased | increases |
